Experimental data as given in ChEMBL document CHEMBL5712891, “Inhibition of BET bromodomain-dependent XIAP and FLIP expression sensitizes KRAS-mutated NSCLC to pro-apoptotic agents” (Cell Death Dis, 2016).
Active and inactive are the calls of the source. The rule behind the calls is not given here.

Key:
A549 [1] = assay: Induction of cell cycle arrest in human A549 cells assessed as accumulation of cells at S phase at 1 uM for 24 hrs by Click-iT EdU Alexa Fluor 647 flow cytometric assay kit analysis (reference value: 35%); type: functional
A549 [2] = assay: Induction of cell cycle arrest in human A549 cells assessed as accumulation of cells at G0/G1 phase at 0.1 uM for 24 hrs by Click-iT EdU Alexa Fluor 647 flow cytometric assay kit analysis (reference value: 61%); type: functional
DV-90 [3] = assay: Induction of cell cycle arrest in human DV-90 cells assessed as accumulation of cells at G0/G1 phase at 1 uM for 24 hrs by Click-iT EdU Alexa Fluor 647 flow cytometric assay kit analysis (reference value: 44%); type: functional
DV-90 [4] = assay: Induction of cell cycle arrest in human DV-90 cells assessed as accumulation of cells at G0/G1 phase at 0.25 uM for 24 hrs by Click-iT EdU Alexa Fluor 647 flow cytometric assay kit analysis (reference value: 44%); type: functional
NCI-H1373 [5] = assay: Induction of cell cycle arrest in human NCI-H1373 cells assessed as accumulation of cells at S phase at 0.25 uM for 24 hrs by Click-iT EdU Alexa Fluor 647 flow cytometric assay kit analysis (reference value: 45%); type: functional
DV-90 [6] = assay: Induction of apoptosis in human DV-90 cells assessed as viable cells at 2.5 uM for 24 hrs by annexin V-PI staining based flow cytometric analysis (reference value: 81.5%); type: functional; conditions: read-out: Activity
DV-90 [7] = assay: Induction of apoptosis in human DV-90 cells assessed as early apoptotic cells at 2.5 uM for 24 hrs by annexin V-PI staining based flow cytometric analysis (reference value: 1.7%); type: functional
DV-90 [8] = assay: Induction of apoptosis in human DV-90 cells assessed as necrotic cells at 2.5 uM for 24 hrs by annexin V-PI staining based flow cytometric analysis (reference value: 5.4%); type: functional
DV-90 [9] = assay: Downregulation of […] gene in human DV-90 cells after 24 hrs by microarray profiling analysis; type: functional, cell-based
SK-LU-1 [10] = assay: Downregulation of XIAP mRNA expression level in human SK-LU-1 cells at 0.1 to 1 uM for 24 hrs by qRT-PCR analysis; type: functional, cell-based; conditions: dose 0.1-1 µM
NCI-H23 = assay: Downregulation of XIAP mRNA expression level in human NCI-H23 cells at 0.1 to 1 uM for 24 hrs by qRT-PCR analysis; type: functional, cell-based; conditions: dose 0.1-1 µM
NCI-H2347 = assay: Downregulation of XIAP mRNA expression level in human NCI-H2347 cells at 0.1 to 1 uM for 24 hrs by qRT-PCR analysis; type: functional, cell-based; conditions: dose 0.1-1 µM
NCI-H1373 [11] = assay: Downregulation of FLIP mRNA expression level in human NCI-H1373 cells at 0.1 to 1 uM for 24 hrs by qRT-PCR analysis; type: functional, cell-based; conditions: dose 0.1-1 µM
NCI-H2030 = assay: Downregulation of FLIP mRNA expression level in human NCI-H2030 cells at 0.1 to 1 uM for 24 hrs by qRT-PCR analysis; type: functional, cell-based; conditions: dose 0.1-1 µM
SK-LU-1 [12] = assay: Downregulation of c-MYC protein expression level in human SK-LU-1 cells at 1 uM for 24 hrs by […] analysis; type: functional, cell-based
NCI-H1373 [13] = assay: Induction of TRAIL dependent apoptosis in human NCI-H1373 cells assessed as PARP cleavage by Western blot analysis; type: functional, cell-based
NCI-H1373 [14] = assay: Induction of TRAIL dependent apoptosis in human NCI-H1373 cells assessed as late apoptotic cells at 1 uM in presence of […] by annexin V-PI staining based flow cytometric analysis (reference value: 8.3%); type: functional
NCI-H1373 [15] = assay: Induction of TRAIL dependent apoptosis in human NCI-H1373 cells assessed as necrotic cells at 1 uM in presence of […] by annexin V-PI staining based flow cytometric analysis (reference value: 3.6%); type: functional
NCI-H1373 [16] = assay: Induction of apoptosis in human NCI-H1373 cells assessed as late apoptotic cells at 2.5 uM for 24 hrs by annexin V-PI staining based flow cytometric analysis (reference value: 22.3%); type: functional
NCI-H460 = assay: Induction of apoptosis in human NCI-H460 cells assessed as viable cells at 2.5 uM for 24 hrs by annexin V-PI staining based flow cytometric analysis (reference value: 92.8%); type: functional; conditions: read-out: Activity
DV-90 [17] = assay: Induction of cell cycle arrest in human DV-90 cells assessed as accumulation of cells at G2/M phase at 0.1 uM for 24 hrs by Click-iT EdU Alexa Fluor 647 flow cytometric assay kit analysis (reference value: 25%); type: functional

Cc1sc2c(c1C)C(c1ccc(Cl)cc1)=N[C@@H](CC(=O)OC(C)(C)C)c1nnc(C)n1-2
Activity (A549 [1]): 32%
Activity (A549 [2]): 61%
Activity (DV-90 [3]): 56%
Activity (DV-90 [4]): 45%
Activity (NCI-H1373 [5]): 21%
viability at 2.5 µM (DV-90 [6]): 50.7%
Activity (DV-90 [7]): 1.9%
Activity (DV-90 [8]): 31%
Activity (DV-90 [9]): Active
Activity (SK-LU-1 [10]): Active
Activity (NCI-H23): Active
Activity (NCI-H2347): Active
Activity (NCI-H1373 [11]): Active
Activity (NCI-H2030): Active
Activity (SK-LU-1 [12]): Active
Activity (NCI-H1373 [13]): Active
Activity (NCI-H1373 [14]): 35.9%
Activity (NCI-H1373 [15]): 40.2%

Cc1sc2c(c1C)C(c1ccc(Cl)cc1)=N[C@@H](CC(=O)Nc1ccc(O)cc1)c1nnc(C)n1-2 [BIRABRESIB]
Activity (NCI-H1373 [16]): 20.3%
viability at 2.5 µM (NCI-H460): 90.4%

CCNC(=O)C[C@@H]1N=C(c2ccc(Cl)cc2)c2cc(OC)ccc2-n2c(C)nnc21 [MOLIBRESIB]
Activity (DV-90 [17]): 31%
